Results taken from US12168763B2, “Microorganisms and methods for reducing bacterial contamination” (Melio Peptide Systems Inc., priority 2020, dated 2024).

What follows are substances tested on L. fermentum NCCB 46038 (assay: Soft-agar overlay assay of S. cerevisiae BY4742 secreting persulcatusin variants from pHVXU plasmids). Conditions: alanine scanning of persulcatusin; relative to wild-type; soft-agar overlay.

| Substance | Change in activity |
| --- | --- |
| C4A: persulcatusin (SEQ ID NO: 1) alanine-scan variant C4A (GFGAPFNQGACHRHCRSIGRRGGYCAGLFKQTCTCYSR; listed as Ixodes persulcatus) [Mutation C4A] | − |
| C11A: persulcatusin (SEQ ID NO: 1) alanine-scan variant C11A (GFGCPFNQGAAHRHCRSIGRRGGYCAGLFKQTCTCYSR; listed as Ixodes persulcatus) [Mutation C11A] | − |
| C15A: persulcatusin (SEQ ID NO: 1) alanine-scan variant C15A (GFGCPFNQGACHRHARSIGRRGGYCAGLFKQTCTCYSR; listed as Ixodes persulcatus) [Mutation C15A] | − |
| C25A: persulcatusin (SEQ ID NO: 1) alanine-scan variant C25A (GFGCPFNQGACHRHCRSIGRRGGYAAGLFKQTCTCYSR; listed as Ixodes persulcatus) [Mutation C25A] | − |
| C33A: persulcatusin (SEQ ID NO: 1) alanine-scan variant C33A (GFGCPFNQGACHRHCRSIGRRGGYCAGLFKQTATCYSR; listed as Ixodes persulcatus) [Mutation C33A] | − |
| C35A: persulcatusin (SEQ ID NO: 1) alanine-scan variant C35A (GFGCPFNQGACHRHCRSIGRRGGYCAGLFKQTCTAYSR; listed as Ixodes persulcatus) [Mutation C35A] | − |
| Engineered persulcatusin with [Mutation F6A, Engineered persulcatusin with [F6A]] | + |
| Engineered persulcatusin with [Mutation F29A, Engineered persulcatusin with [F29A]] | + |
| Engineered persulcatusin with [Mutation L28A, Engineered persulcatusin with [L28A]] | + |
| Engineered persulcatusin with [Mutation R13A, Engineered persulcatusin with [R13A]] | + |
| Engineered persulcatusin with [Mutation R16A, Engineered persulcatusin with [R16A]] | + |
| Engineered persulcatusin with [Mutation R20A, Engineered persulcatusin with [R20A]] | + |
| Engineered persulcatusin with [Mutation R21A, Engineered persulcatusin with [R21A]] | + |
| Engineered persulcatusin with [Mutation R38A, Engineered persulcatusin with [R38A]] | + |
| F2A: persulcatusin (SEQ ID NO: 1) alanine-scan variant F2A (GAGCPFNQGACHRHCRSIGRRGGYCAGLFKQTCTCYSR; listed as Ixodes persulcatus) [Mutation F2A] | − |
| G1A: persulcatusin (SEQ ID NO: 1) alanine-scan variant G1A (AFGCPFNQGACHRHCRSIGRRGGYCAGLFKQTCTCYSR; listed as Ixodes persulcatus) [Mutation G1A] | − |
| G22A: persulcatusin (SEQ ID NO: 1) alanine-scan variant G22A (GFGCPFNQGACHRHCRSIGRRAGYCAGLFKQTCTCYSR; listed as Ixodes persulcatus) [Mutation G22A] | − |
| G23A: persulcatusin (SEQ ID NO: 1) alanine-scan variant G23A (GFGCPFNQGACHRHCRSIGRRGAYCAGLFKQTCTCYSR; listed as Ixodes persulcatus) [Mutation G23A] | − |
| G27A: persulcatusin (SEQ ID NO: 1) alanine-scan variant G27A (GFGCPFNQGACHRHCRSIGRRGGYCAALFKQTCTCYSR; listed as Ixodes persulcatus) [Mutation G27A] | − |
| H12A: persulcatusin (SEQ ID NO: 1) alanine-scan variant H12A (GFGCPFNQGACARHCRSIGRRGGYCAGLFKQTCTCYSR; listed as Ixodes persulcatus) [Mutation H12A] | − |
| H14A: persulcatusin (SEQ ID NO: 1) alanine-scan variant H14A (GFGCPFNQGACHRACRSIGRRGGYCAGLFKQTCTCYSR; listed as Ixodes persulcatus) [Mutation H14A] | − |
| K30A: persulcatusin (SEQ ID NO: 1) alanine-scan variant K30A (GFGCPFNQGACHRHCRSIGRRGGYCAGLFAQTCTCYSR; listed as Ixodes persulcatus) [Mutation K30A] | − |
| N7A: persulcatusin (SEQ ID NO: 1) alanine-scan variant N7A (GFGCPFAQGACHRHCRSIGRRGGYCAGLFKQTCTCYSR; listed as Ixodes persulcatus) [Mutation N7A] | − |

Same assay, conditions: random mutagenesis clones of persulcatusin; increase of growth inhibition zones

| Substance | Increase in Activity |
| --- | --- |
| Engineered persulcatusin with [Mutation S7-140-1, Engineered persulcatusin with [R13S/I18N]] | + |
| Engineered persulcatusin with [Mutation S7-140-2, Engineered persulcatusin with [R13S]] | + |
| Engineered persulcatusin with [Mutation S7-140-3, Engineered persulcatusin with [R20S/R21G]] | + |
| Engineered persulcatusin with [Mutation S7-140-7, Engineered persulcatusin with [R16G/F29V]] | + |
| Engineered persulcatusin with [Mutation S7-140-8, Engineered persulcatusin with [R21G]] | + |
| Engineered persulcatusin with [Mutation S7-140-9, Engineered persulcatusin with [A26D]] | + |
| Engineered persulcatusin with [Mutation S7-140-10, Engineered persulcatusin with [R13S/R21G]] | + |
| Engineered persulcatusin with [Mutation S7-140-18, Engineered persulcatusin with [N7D/R16S]] | + |
| Engineered persulcatusin with [Mutation S7-140-34, Engineered persulcatusin with [R13S/R20T]] | ++ |
| Engineered persulcatusin with [Mutation S7-140-42, Engineered persulcatusin with [N7D/F29L]] | ++ |
| Engineered persulcatusin with [Mutation S7-144-4, Engineered persulcatusin with [G9D/R20S]] | ++ |
| Engineered persulcatusin with [Mutation S7-144-11, Engineered persulcatusin with [R16S/R20S]] | ++ |
| Engineered persulcatusin with [Mutation S7-144-43, Engineered persulcatusin with [R13S/L28M]] | + |
| Engineered persulcatusin with [Mutation S7-144-59, Engineered persulcatusin with [R13S/R16K]] | + |
| Engineered persulcatusin with [Mutation S7-144-75, Engineered persulcatusin with [R13S/A26D]] | ++ |
| Engineered persulcatusin with [Mutation S7-156-22, Engineered persulcatusin with [G9D/I18F/F29L]] | + |
| Engineered persulcatusin with [Mutation S7-156-36, Engineered persulcatusin with [F6S/R13S/R16K/I18V]] | ++ |
| Engineered persulcatusin with [Mutation S7-176-3-1, Engineered persulcatusin with [R13S/R21S]] | ++ |
| Engineered persulcatusin with [Mutation S7-176-4-1, Engineered persulcatusin with [F6V/R13S/A26D]] | ++ |
| Engineered persulcatusin with [Mutation S7-176-5-1, Engineered persulcatusin with [F6L/G9D/R20K]] | ++ |
| Engineered persulcatusin with [Mutation S7-192-4, Engineered persulcatusin with [N7D/H14F/R16S]] | ++ |
| Engineered persulcatusin with [Mutation S7-192-7, Engineered persulcatusin with [G9D/H14Q]] | ++ |
| Engineered persulcatusin with [Mutation S7-192-22, Engineered persulcatusin with [F6L/N7D/H14Q]] | ++ |
| Engineered persulcatusin with [Mutation S7-192-26, Engineered persulcatusin with [F6L/G9D/H14Q]] | +++ |
| Engineered persulcatusin with [Mutation S-176-2-1, Engineered persulcatusin with [F6V/R13S]] | ++ |
